Activity calls are given as the source filed them. No cut-off for these calls is given here.
Organism: Oryctolagus cuniculus
Assay: Vasorelaxant activity in rabbit aorta assessed as inhibition of KCl-induced contraction
Type: functional, tissue-based

Q: How did the Activity turn out when `C=C1C(=O)O[C@@H]2/C=C(\C)CC/C=C(\C)CC[C@@H]12` was run?
A: The Activity was “Active”.

Q: With `C=C1CC[C@H]2C(=C)C(=O)O[C@@H]2C2C(=C)CCC12` (some centres not stated) as the compound, how does the Activity read?
A: The Activity was “Active”.

From ChEMBL document CHEMBL1149021, “Vasoactive substances from Saussurea lappa” (J Nat Prod, 1986)
